Data taken from US20050070510A1, “Substituted tetracycline compounds as synergistic antifungal agents” (Paratek Pharmaceuticals, Inc., priority 2001, published 2005).

Test system: Candida albicans (ATCC#90028)
Assay: Synergetic antifungal activity with amphotericin B, broth microdilution (NCCLS)
Format: cell-based
Conditions: amphotericin B alone

## C[C@@H]1[C@H](O)[C@@H](C)/C=C/C=C/C=C/C=C/C=C/C=C/C=C/[C@H](O[C@@H]2O[C@H](C)[C@@H](O)[C@H](N)[C@@H]2O)C[C@@H]2O[C@](O)(C[C@@H](O)C[C@@H](O)[C@H](O)CC[C@@H](O)C[C@@H](O)CC(=O)O[C@H]1C)C[C@H](O)[C@H]2C(=O)O [Amphotericin B]
  amphotericin B MIC: 0.5 µg/mL
